# Where two headings read alike, the source gives them in different places. Numbered stars: 1 amine (or outer) side, 2 acyl side, 3 side chain; on linkers, the order of the positions; unused ones are H or OH. Bridge positions count the residues as written; N and C are the ends. Square brackets hold non-standard residues; d marks the D form. Peptide text beside a SMILES is read from it. * marks the point of attachment. C20 diacid = O=C(O)CCCCCCCCCCCCCCCCCCC(=O)*; γGlu = O=C(O)[C@H](CCC(=O)[*:2])N[*:1]; Hyp = O=C(O)[C@@H]1C[C@@H](O)CN1; NMeI = CC[C@H](C)[C@H](NC)C(=O)O; Sar = CNCC(=O)O
# Tests used:
# [1] = target: T1, human amylin receptor 3 (hAMYR3) consisting of hCTR2 co-expressed with human Receptor Activity Modifying Protein 3 (hRAMP3) (Homo sapiens, UniProt O60896+P30988); test: hAMYR3 assay: induction of cAMP (AlphaScreen cAMP Assay kit) in COS7 cells expressing hAMYR3; assay type: cell-based
# T1 construct: expressed in transfected cells
# T1 sequence (P30988 25-474): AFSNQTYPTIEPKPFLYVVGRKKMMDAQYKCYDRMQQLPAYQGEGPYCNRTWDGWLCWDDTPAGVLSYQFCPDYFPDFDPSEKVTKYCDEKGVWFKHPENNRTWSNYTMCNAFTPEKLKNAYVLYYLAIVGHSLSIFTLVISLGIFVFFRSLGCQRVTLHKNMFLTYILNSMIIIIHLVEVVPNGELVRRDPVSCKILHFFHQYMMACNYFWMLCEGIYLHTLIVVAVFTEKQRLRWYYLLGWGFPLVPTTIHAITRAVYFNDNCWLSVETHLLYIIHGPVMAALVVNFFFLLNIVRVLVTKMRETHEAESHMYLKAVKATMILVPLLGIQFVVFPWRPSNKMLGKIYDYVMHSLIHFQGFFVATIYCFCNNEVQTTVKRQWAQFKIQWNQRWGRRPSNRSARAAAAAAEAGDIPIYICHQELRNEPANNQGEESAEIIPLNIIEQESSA
# T1 sequence (O60896 24-148 partner): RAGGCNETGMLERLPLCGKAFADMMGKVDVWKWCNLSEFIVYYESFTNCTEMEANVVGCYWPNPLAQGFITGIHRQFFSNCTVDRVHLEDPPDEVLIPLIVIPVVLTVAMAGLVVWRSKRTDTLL
# Source text: The cell line COS7, originating from African Green Monkey kidney fibroblast cells, was used for establishment of the stable cell lines described below. The COS7 cellular background was used due to it being RAMP naive, and as such it provides the best available system for testing of the monomeric hCTR and different heterodimeric amylin receptor subtypes functionally generated by introduction of the individual RAMPs.
# A cell line expressing the human amylin receptor 3 (hAMYR3) was generated in the COS7 cellular background as stable clones. In brief, hCTR2 (GI:4502547) and hRAMP3 (GI:118572586) were amplified by PCR using primers encoding terminal restriction sites for subcloning. The 5'-end primers additionally encoded a near Kozak consensus sequence to ensure efficient translation. The fidelity of the DNA encoding the receptor was confirmed by DNA sequencing. The PCR products encoding the receptor were subcloned into a proprietary tri-cistronic mammalian expression vector with RAMP3, hCTR2 and neomycin (G418) resistance marker. The mammalian expression vector encoding the receptor was transfected into COS7 cells by a standard liposome transfection method. 48 hours post-transfection, cells were seeded for limited dilution cloning and selected with 1 mg/ml G418 in the culture medium. After 3 weeks, surviving colonies of hAMY3R-expressing cells were picked, propagated and tested in the amylin efficacy assay as described in Example 3 below. The functional generation of the amylin receptor phenotype was verified in the efficacy assay by a left-shifted efficacy response to amylin relative to monomeric calcitonin receptor, and one hAMYR3-expressing clone was chosen for compound profiling.
# In vitro activity of test peptides at the hCTR2 and hAMYR3 receptors was assessed by measuring the induction of cAMP following stimulation of the receptor by pramlintide or peptides of the invention using the AlphaScreen® cAMP Assay kit from Perkin-Elmer.
# Briefly, COS7 cells expressing hCTR2 (see Example 2, above) were seeded at 30-40,000 cells per well in 96-well microtiter plates coated with 0.01 % poly-L-lysine, and grown for 1 day in culture in 100 µl growth medium [DMEM, 10% FCS, Penicillin (100 IU/ml), Streptomycin (100 µg/ml)]. On the day of analysis, growth medium was removed and the cells were washed once with 200 µl Tyrode buffer [Tyrode's Salts (9.6 g/l), 10 mM HEPES, pH 7.4]. Cells were incubated in 100 µl Tyrode buffer containing increasing concentrations of test peptides, 100 µM IBMX and 0.1% casein for 15 min at 37° C. The reaction was stopped by carefully decanting off the compound/buffer medium and replacing it with lysis/detection buffer (80 µl 0.1 % w/v BSA, 5 mM HEPES, 0.3 % v/v Tween-20 in deionized water). After incubation at room temperature for 10 min., the cAMP content of the resulting cell lysate was estimated according to the AlphaScreen® cAMP Assay manufacturer's instructions. EC50 values and relative efficacy values (in %) compared to reference peptide (Pramlintide) were estimated by computer-aided curve fitting using the 4-parameter logistic (4PL) non-linear model.
# The in vitro activity results (expressed as EC50 values) for peptides of the invention and for Pramlintide (reference peptide) are summarized in Table 2, below.
# [2] = target: T2, human calcitonin receptor (hCTR2) (Homo sapiens, UniProt P30988); test: hCTR2 assay: induction of cAMP (AlphaScreen cAMP Assay kit) in COS7 cells expressing hCTR2; assay type: cell-based
# T2 construct: expressed in transfected cells
# T2 sequence (P30988 25-474): T1 sequence (P30988 25-474)
# Outline: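 cAMP read-out by AlphaScreen after cell lysis; EC50 and % efficacy vs pramlintide from 4-parameter logistic fitting. Agonist stimulation: hCTR2-COS7 stable cells, 15 min, 37° C, 100 µM IBMX, 0.1% casein, Tyrode/HEPES pH 7.4.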
# [3] = cAMP induction in COS7 cells expressing hAMYR3, average of a minimum of 3 determinations, read-out: hAMY R3 EC50
# [4] = cAMP induction in COS7 cells expressing hCTR2, average of a minimum of 3 determinations, read-out: hCTR2 EC50
Structure (SMILES),"EC50 [1, 3]","EC50 [2, 4]",EC50 [1],EC50 [2]
"CC[C@H](C)[C@@H](C(=O)N[C@@H](CC(C)C)C(=O)N[C@@H](CO)C(=O)N[C@@H](CO)C(=O)N[C@H](C(=O)N[C@@H](CCC(=O)O)C(=O)N[C@H](C(=O)NCC(=O)N[C@@H](CO)C(=O)N[C@@H](CCC(=O)O)C(=O)N[C@H](C(=O)N1CCC[C@H]1C(N)=O)[C@@H](C)O)C(C)C)[C@@H](C)O)N(C)C(=O)[C@H](C)NC(=O)CN(C)C(=O)[C@H](Cc1ccccc1)NC(=O)[C@H](CO)NC(=O)[C@H](CO)NC(=O)[C@H](CO)NC(=O)[C@H](CO)NC(=O)[C@H](CCCNC(=N)N)NC(=O)[C@H](Cc1c[nH]cn1)NC(=O)[C@H](CC(C)C)NC(=O)[C@H](Cc1ccccc1)NC(=O)[C@H](CCC(=O)O)NC(=O)[C@H](C)NC(=O)[C@H](CC(C)C)NC(=O)[C@H](CCCNC(=N)N)NC(=O)[C@H](CCC(N)=O)NC(=O)[C@@H](NC(=O)[C@H](C)NC(=O)[C@@H]1CSSC[C@H](NC(=O)[C@H](CCCNC(=N)N)NC(=O)CC[C@H](NC(=O)CCCCCCCCCCCCCCCCCCC(=O)O)C(=O)O)C(=O)N[C@@H](CCC(=O)O)C(=O)N[C@@H]([C@@H](C)O)C(=O)N[C@@H](C)C(=O)N[C@@H]([C@@H](C)O)C(=O)N1)[C@@H](C)O [Compound 128, [19CD]-isoGlu-RC()ETATC()ATQRLAEFLHRSSSSF-Gly(Me)-A-Ile(Me)-LSSTEVGSETP-NH2] ({C20 diacid-γGlu}-RCETATCATQRLAEFLHRSSSSF[Sar]A[NMeI]LSSTEVGSETP-NH2; disulfide 2-7)",0.45 nM,0.28 nM,–,–
"CC[C@H](C)[C@@H](C(=O)N[C@@H](CC(C)C)C(=O)N[C@@H](CO)C(=O)N[C@@H](CO)C(=O)N[C@H](C(=O)N[C@@H](CCC(=O)O)C(=O)N[C@H](C(=O)NCC(=O)N[C@@H](CO)C(=O)N[C@@H](CCC(=O)O)C(=O)N[C@H](C(=O)N1C[C@H](O)C[C@H]1C(N)=O)[C@@H](C)O)C(C)C)[C@@H](C)O)N(C)C(=O)CN(C)C(=O)[C@H](Cc1ccccc1)NC(=O)[C@H](CO)NC(=O)[C@H](CO)NC(=O)[C@H](CO)NC(=O)[C@H](CO)NC(=O)[C@H](CCCNC(=N)N)NC(=O)[C@H](Cc1c[nH]cn1)NC(=O)[C@H](CC(C)C)NC(=O)[C@H](Cc1ccccc1)NC(=O)[C@H](CCC(=O)O)NC(=O)[C@H](C)NC(=O)[C@H](CC(C)C)NC(=O)[C@H](CCCNC(=N)N)NC(=O)[C@H](CCC(=O)O)NC(=O)[C@@H](NC(=O)[C@H](C)NC(=O)[C@@H]1CSSC[C@H](NC(=O)[C@H](CCCCN)NC(=O)[C@H](CCCCN)NC(=O)CC[C@H](NC(=O)CCCCCCCCCCCCCCCCCCC(=O)O)C(=O)O)C(=O)N[C@@H](CCC(=O)O)C(=O)N[C@@H]([C@@H](C)O)C(=O)N[C@@H](C)C(=O)N[C@@H]([C@@H](C)O)C(=O)N1)[C@@H](C)O [Compound 169, [19CD]-isoGlu-KKC()ETATC()ATERLAEFLHRSSSSF-Gly(Me)-Ile(Me)-LSSTEVGSET-Hyp-NH2] ({C20 diacid-γGlu}-KKCETATCATERLAEFLHRSSSSF[Sar][NMeI]LSSTEVGSET[Hyp]-NH2; disulfide 3-8)",0.64 nM,3.5 nM,–,–
"CC[C@H](C)[C@@H](C(=O)N[C@@H](CC(C)C)C(=O)N[C@@H](CO)C(=O)N[C@@H](CO)C(=O)N[C@H](C(=O)N[C@@H](CC(N)=O)C(=O)N[C@H](C(=O)NCC(=O)N[C@@H](CO)C(=O)N[C@@H](CC(N)=O)C(=O)N[C@H](C(=O)N[C@@H](CO)C(N)=O)[C@@H](C)O)C(C)C)[C@@H](C)O)N(C)C(=O)[C@H](C)NC(=O)CN(C)C(=O)[C@H](Cc1ccccc1)NC(=O)[C@H](CC(N)=O)NC(=O)[C@H](CC(N)=O)NC(=O)[C@H](CO)NC(=O)[C@H](CO)NC(=O)[C@H](CCCNC(=N)N)NC(=O)[C@H](Cc1c[nH]cn1)NC(=O)[C@H](CC(C)C)NC(=O)[C@H](Cc1ccccc1)NC(=O)[C@H](CCC(=O)O)NC(=O)[C@H](C)NC(=O)[C@H](CC(C)C)NC(=O)[C@H](CCCNC(=N)N)NC(=O)[C@H](CCC(N)=O)NC(=O)[C@@H](NC(=O)[C@H](C)NC(=O)[C@@H]1CSSC[C@H](NC(=O)[C@H](CCCNC(=N)N)NC(=O)CC[C@H](NC(=O)CCCCCCCCCCCCCCCCCCC(=O)O)C(=O)O)C(=O)N[C@@H](CC(N)=O)C(=O)N[C@@H]([C@@H](C)O)C(=O)N[C@@H](C)C(=O)N[C@@H]([C@@H](C)O)C(=O)N1)[C@@H](C)O [Compound 116, [19CD]-isoGlu-RC()NTATC()ATQRLAEFLHRSSNNF-Gly(Me)-A-Ile(Me)-LSSTNVGSNTS-NH2] ({C20 diacid-γGlu}-RCNTATCATQRLAEFLHRSSNNF[Sar]A[NMeI]LSSTNVGSNTS-NH2; disulfide 2-7)",–,–,1.6 nM,0.93 nM
"CC[C@H](C)[C@@H](C(=O)N[C@@H](CC(C)C)C(=O)N[C@@H](CO)C(=O)N[C@@H](CO)C(=O)N[C@H](C(=O)N[C@@H](CCC(=O)O)C(=O)N[C@H](C(=O)NCC(=O)N[C@@H](CO)C(=O)N[C@@H](CCC(=O)O)C(=O)N[C@H](C(=O)N1CCC[C@H]1C(N)=O)[C@@H](C)O)C(C)C)[C@@H](C)O)N(C)C(=O)[C@H](C)NC(=O)CN(C)C(=O)[C@H](Cc1ccccc1)NC(=O)[C@H](CO)NC(=O)[C@H](CO)NC(=O)[C@H](CO)NC(=O)[C@H](CO)NC(=O)[C@H](CCCNC(=N)N)NC(=O)[C@H](Cc1c[nH]cn1)NC(=O)[C@H](CC(C)C)NC(=O)[C@H](Cc1ccccc1)NC(=O)[C@H](CCC(=O)O)NC(=O)[C@H](C)NC(=O)[C@H](CC(C)C)NC(=O)[C@H](CCCNC(=N)N)NC(=O)[C@H](CO)NC(=O)[C@@H](NC(=O)[C@H](C)NC(=O)[C@@H]1CSSC[C@H](NC(=O)[C@H](CCCNC(=N)N)NC(=O)CC[C@H](NC(=O)CCCCCCCCCCCCCCCCCCC(=O)O)C(=O)O)C(=O)N2CCC[C@H]2C(=O)N[C@@H]([C@@H](C)O)C(=O)N[C@@H](C)C(=O)N[C@@H]([C@@H](C)O)C(=O)N1)[C@@H](C)O [Compound 140, [19CD]-isoGlu-RC()PTATC()ATSRLAEFLHRSSSSF-Gly(Me)-A-Ile(Me)-LSSTEVGSETP-NH2] ({C20 diacid-γGlu}-RCPTATCATSRLAEFLHRSSSSF[Sar]A[NMeI]LSSTEVGSETP-NH2; disulfide 2-7)",–,0.098 nM,0.18 nM,–

# From patent EP3046573B1, “AMYLIN ANALOGUES” (Zealand Pharma A/S, priority 2013, dated 2015)
